Patent US20260265694A1, “USE OF A VITISIN COMPOUND FOR THE PRODUCTION OF HEMATOPOIETIC CELLS” (ETABLISSEMENT FRANCAIS DU SANG, priority 2022, published 2026)

Test system: CMP isolated from peripheral blood CD34+ cells
Assay: ERYTHRO 1 PROTOCOL on sorted CMP cells
Assay type: cell-based, human
Details: CMPs, 10 μM
Description: b. Isolation of CMP and MEP Progenitors The CD34^+ cells previously isolated via an immunomagnetic technique were marked with anti-CD34-BV421 (1:100 000), anti-CD45RA-BB517 (1:100 000), anti-CD123-Alexa647 (1.5:100 000) antibodies (BD Pharmingen) and a cocktail of anti-LIN-PE antibodies (2:100 000) for 15 minutes. The LIN cocktail antibodies are directed against markers specific to mature cells (CD2, CD3, CD4, CD7, CD8, CD10, CD11b, CD14, CD19, CD20, CD56, CD235a). This LIN cocktail thus allows enrichment in “LIN^neg” immature cells by depletion of mature cells. After incubation with these antibodies, the cells are rinsed with a solution of PBS^+ (PBS+2% Fetal Calf Serum (FCS)) and centrifuged (430×g, 10 min. 4° C.). After resuspension of the cells in PBS^+, CMPs with the phenotype CD34^+LIN^negCD123^+CD45RA^neg and MEPs with the phenotype CD34^+LIN^negCD123^negCD45RA^neg are sorted and harvested using an ARIA cell sorter (Manz et al., 2002). c. Isolation of BFU-E and CFU-E Progenitors Placental blood CD34^+ cells, previously isolated by immunomagnetic sorting, are marked with antibodies specific to surface antigens allowing them to target and discriminate BFU-E primitive erythrocyte progenitors, namely anti-CD34, anti-GPA, anti CD123 and anti-CD36 antibodies. Primitive erythrocyte progenitors (BFU-Es) are defined by the following phenotype: CD34^+CD123^negCD36^negGPA^neg. […]

Oc1ccc(C2Oc3ccc(/C=C/c4cc(O)cc5c4[C@H](c4cc(O)cc(O)c4)[C@@H](c4ccc(O)cc4)O5)cc3C2c2cc(O)cc3c2C(c2cc(O)cc(O)c2)C(c2ccc(O)cc2)O3)cc1 (stereo in doubt) [vitisin B, 5-[(2R,2'S,3R,3'S)-5-[(1E)-2-[(2S,3S)-3-(3,5-Dihydroxyphenyl)-2,3-dihydro-6-hydroxy-2-(4-hydroxyphenyl)-4-benzofuranyl]ethenyl]-2,2′,3,3′-tetrahydro-6′-hydroxy-2,2′-bis(4-hydroxyphenyl)[3,4′-bibenzofuran]-3′-yl]-1,3-benzenediol]
erythrocyte differentiation (acquisition of the phenotype CD71+GPA+) (FIG. 4A): acceleration of erythrocyte differentiation | reduction relative to the control in CD71 membrane expression (as early as D7, FIG. 4B): up to 40%
